Measurements reported in US9499495B2, “Quinazolines and azaquinazolines as dual inhibitors of RAS/RAF/MEK/ERK and PI3K/AKT/PTEN/mTOR pathways” (Asana Biosciences, LLC, priority 2013, dated 2016).

Tests used:
Assay type in all cases: biochemical
[1] = target: T1, PI3Kα (Homo sapiens, UniProt P42336); assay: PI3 Kinase alpha TR-FRET assay
T1 construct: made in house; host or cells: SF9 cells
Method in brief: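 Purified Sf9-expressed p110/p85α (5 ng) was pre-incubated with compound and PIP2 at rt, then ATP was added (PIP2 and ATP both 40 μM) for a 30 min reaction. PIP3 was detected by TR-FRET displacement of biotin-PIP3, and IC50 was taken from dose-response curves of the 665/615 nm emission ratio.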

[2] = target: T2, mTOR kinase (Homo sapiens, UniProt P42345); assay: mTOR kinase TR-FRET assay
T2 construct: purchased Millipore, US
Method in brief: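 TR-FRET with ULight-p70 S6K (Thr 389) peptide (50 nM) and 20 μM ATP in 50 mM HEPES pH 7.5, 1 mM EGTA, 3 mM MnCl2; compound pre-incubated with enzyme before substrate addition, reaction at rt, EDTA-stopped. Eu anti-phospho antibody read 665/615 nm; IC50 from sigmoidal dose-response fit.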

[3] = target: T3, B-RAFV600E (Homo sapiens, UniProt P15056, V600E); assay: B-RAFV600E radiometric assay; details: read-out: Kinase assay B-Raf
T3 construct: purchased Millipore, USA 14-557
Method in brief: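 B-RAFV600E was preincubated 45 min at rt with compound in 1% DMSO. MEK-K97M (0.5 μg), 5 μM final cold ATP and [γ-32P]ATP were then added for 2 h at rt. Phosphorylated MEK was captured on P81 paper and scintillation-counted; IC50 came from a sigmoidal dose-response fit.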

T1 sequence (P42336 whole entry, species assumed): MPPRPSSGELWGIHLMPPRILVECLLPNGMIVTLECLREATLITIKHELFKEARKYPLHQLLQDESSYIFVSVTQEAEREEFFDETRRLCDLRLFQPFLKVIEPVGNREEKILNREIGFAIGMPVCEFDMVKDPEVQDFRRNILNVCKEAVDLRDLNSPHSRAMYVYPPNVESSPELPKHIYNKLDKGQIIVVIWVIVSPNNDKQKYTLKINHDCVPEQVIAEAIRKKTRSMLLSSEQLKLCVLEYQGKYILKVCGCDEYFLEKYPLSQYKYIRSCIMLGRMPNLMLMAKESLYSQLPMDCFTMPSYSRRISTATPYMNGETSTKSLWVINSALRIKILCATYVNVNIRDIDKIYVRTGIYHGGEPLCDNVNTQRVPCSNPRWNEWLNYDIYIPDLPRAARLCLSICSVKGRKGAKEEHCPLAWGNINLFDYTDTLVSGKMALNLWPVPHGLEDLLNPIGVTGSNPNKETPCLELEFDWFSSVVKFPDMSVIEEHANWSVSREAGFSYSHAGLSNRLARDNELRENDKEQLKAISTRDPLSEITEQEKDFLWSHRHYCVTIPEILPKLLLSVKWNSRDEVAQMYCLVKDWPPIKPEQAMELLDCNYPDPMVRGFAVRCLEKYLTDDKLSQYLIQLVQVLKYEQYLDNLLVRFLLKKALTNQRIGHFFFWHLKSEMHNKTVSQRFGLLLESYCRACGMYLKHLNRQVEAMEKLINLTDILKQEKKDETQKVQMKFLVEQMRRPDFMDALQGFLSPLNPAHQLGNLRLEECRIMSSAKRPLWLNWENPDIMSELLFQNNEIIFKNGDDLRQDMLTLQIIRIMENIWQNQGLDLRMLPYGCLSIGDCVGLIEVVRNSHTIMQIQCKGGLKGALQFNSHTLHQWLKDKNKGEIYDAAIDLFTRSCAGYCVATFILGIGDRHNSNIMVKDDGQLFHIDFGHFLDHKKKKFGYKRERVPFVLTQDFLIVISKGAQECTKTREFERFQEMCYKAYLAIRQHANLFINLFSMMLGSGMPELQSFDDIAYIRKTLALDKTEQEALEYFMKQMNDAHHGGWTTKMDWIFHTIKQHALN
T1 sequence (P27986 whole entry partner, species assumed): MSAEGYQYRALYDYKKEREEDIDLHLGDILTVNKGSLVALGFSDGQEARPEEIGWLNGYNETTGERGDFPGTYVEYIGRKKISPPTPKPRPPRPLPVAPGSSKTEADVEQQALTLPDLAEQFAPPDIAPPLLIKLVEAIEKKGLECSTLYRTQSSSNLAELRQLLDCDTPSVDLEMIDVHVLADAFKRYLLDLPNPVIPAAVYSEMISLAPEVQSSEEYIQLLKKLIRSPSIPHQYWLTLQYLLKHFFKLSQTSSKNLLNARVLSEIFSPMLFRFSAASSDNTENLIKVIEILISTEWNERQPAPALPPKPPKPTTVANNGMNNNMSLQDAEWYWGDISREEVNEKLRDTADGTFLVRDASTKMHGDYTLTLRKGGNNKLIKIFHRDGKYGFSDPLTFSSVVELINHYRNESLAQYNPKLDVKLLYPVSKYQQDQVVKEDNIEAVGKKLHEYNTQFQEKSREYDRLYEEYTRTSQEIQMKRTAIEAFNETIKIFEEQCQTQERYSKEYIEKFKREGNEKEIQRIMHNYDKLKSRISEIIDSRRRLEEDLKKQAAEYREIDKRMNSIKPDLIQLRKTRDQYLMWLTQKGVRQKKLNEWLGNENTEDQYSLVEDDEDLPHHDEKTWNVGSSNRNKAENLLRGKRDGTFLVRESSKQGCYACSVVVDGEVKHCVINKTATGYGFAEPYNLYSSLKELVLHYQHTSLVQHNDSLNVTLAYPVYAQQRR
T3 sequence (P15056 416-766 V600E limits assumed): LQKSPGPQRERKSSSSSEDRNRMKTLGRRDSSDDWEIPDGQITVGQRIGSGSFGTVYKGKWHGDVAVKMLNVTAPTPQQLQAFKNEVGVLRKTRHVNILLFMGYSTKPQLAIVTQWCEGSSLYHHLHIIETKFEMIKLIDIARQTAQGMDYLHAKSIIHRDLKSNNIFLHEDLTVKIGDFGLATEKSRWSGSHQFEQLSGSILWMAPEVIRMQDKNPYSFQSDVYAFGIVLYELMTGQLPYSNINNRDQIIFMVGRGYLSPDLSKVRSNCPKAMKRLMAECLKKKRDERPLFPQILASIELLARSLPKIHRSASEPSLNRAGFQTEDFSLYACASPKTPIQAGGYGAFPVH
T2 sequence (P42345 1362-2549 limits assumed): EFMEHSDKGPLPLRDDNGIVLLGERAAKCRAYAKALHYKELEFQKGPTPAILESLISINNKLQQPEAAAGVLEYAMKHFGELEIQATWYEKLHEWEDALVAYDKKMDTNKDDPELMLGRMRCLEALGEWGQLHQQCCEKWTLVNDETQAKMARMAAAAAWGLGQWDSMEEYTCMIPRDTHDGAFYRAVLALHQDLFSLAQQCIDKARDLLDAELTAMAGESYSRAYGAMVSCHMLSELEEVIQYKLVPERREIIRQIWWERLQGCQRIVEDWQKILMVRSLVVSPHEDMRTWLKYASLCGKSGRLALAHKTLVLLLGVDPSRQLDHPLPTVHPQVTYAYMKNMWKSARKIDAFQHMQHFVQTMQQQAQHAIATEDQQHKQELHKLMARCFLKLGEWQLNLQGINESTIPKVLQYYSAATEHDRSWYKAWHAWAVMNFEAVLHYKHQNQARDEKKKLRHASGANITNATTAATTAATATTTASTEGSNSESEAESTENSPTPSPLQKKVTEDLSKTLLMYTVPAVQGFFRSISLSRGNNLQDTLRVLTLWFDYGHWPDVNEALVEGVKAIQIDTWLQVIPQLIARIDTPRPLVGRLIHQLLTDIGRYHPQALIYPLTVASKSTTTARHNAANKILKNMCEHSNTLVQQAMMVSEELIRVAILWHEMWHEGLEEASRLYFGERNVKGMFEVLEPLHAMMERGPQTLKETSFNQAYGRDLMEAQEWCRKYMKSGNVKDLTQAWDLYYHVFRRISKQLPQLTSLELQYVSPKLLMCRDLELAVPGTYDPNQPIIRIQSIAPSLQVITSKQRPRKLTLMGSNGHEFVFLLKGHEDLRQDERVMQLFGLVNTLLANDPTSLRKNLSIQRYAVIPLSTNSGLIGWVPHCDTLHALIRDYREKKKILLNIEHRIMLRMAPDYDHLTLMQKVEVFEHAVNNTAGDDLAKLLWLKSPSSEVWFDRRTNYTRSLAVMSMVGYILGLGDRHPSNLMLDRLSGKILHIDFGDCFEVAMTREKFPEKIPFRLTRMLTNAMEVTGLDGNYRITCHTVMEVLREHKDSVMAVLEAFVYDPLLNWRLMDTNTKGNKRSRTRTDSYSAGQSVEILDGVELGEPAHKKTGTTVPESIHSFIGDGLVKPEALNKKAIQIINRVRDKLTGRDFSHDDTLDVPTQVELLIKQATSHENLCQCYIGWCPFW

Work on `C[C@H]1COCCN1c1nc(-c2cnc(N)cc2F)nc2ccc(-c3cccc(NS(=O)(=O)CCCF)c3F)nc12` [Example 129, (S)-N-(3-(2-(6-amino-4-fluoropyridin-3-yl)-4-(3-methylmorpholino)pyrido[3,2-d]pyrimidin-6-yl)-2-fIuorophenyl)-3-fluoropropane-1-sulfonamide] yielded an IC50 [1] of 1 to 100 nM, an IC50 [2] of 1 to 100 nM and an IC50 [3] of 1 to 100 nM.
For `COc1cc(-c2cccc(NS(=O)(=O)CCCF)c2F)cc2c(N3CCOC[C@H]3C)nc(-c3cnc(N)c(F)c3)nc12` [Example 134, (R)-N-(3-(2-(6-amino-5-fluoropyridin-3-yl)-8-methoxy-4-(3-methylmorpholino)quinazolin-6-yl)-2-fluorophenyl)-3-fluoropropane-1-sulfonamide], the IC50 [1] was 1000 to 10000 nM, the IC50 [2] was 1 to 100 nM and the IC50 [3] was 1 to 100 nM.
Work on `COc1cc(-c2cccc(NS(=O)(=O)CCCF)c2F)cc2c(N3CCOC[C@H]3C)nc(-c3cnc(N)cc3F)nc12` [Example 135, (R)-N-(3-(2-(6-amino-4-fluoropyridin-3-yl)-8-methoxy-4-(3-methylmorpholino)quinazolin-6-yl)-2-fluorophenyl)-3-fluoropropane-1-sulfonamide] yielded an IC50 [1] of 1000 to 10000 nM, an IC50 [2] of 1 to 100 nM and an IC50 [3] of 1 to 100 nM.
